We go through 50 compounds from BindingDB's records for doi:10.1021/acs.jmedchem.1c00779 (Hong Kong Polytechnic University, 2021).

Data set [1] is described as follows: Inhibition of BCRP (unknown origin) transfected in HEK293/R2 cells assessed as reversal of topotecan resistance after 5 days by MTS/PMS assay.
Data set [2] can be described thus: Inhibition of P-gp (unknown origin) expressed in human LCC6MDR cells assessed as reversal of paclitaxel resistance after 5 days by MTS/PMS assay.
Data set [3] is described as follows: Inhibition of MRP1 (unknown origin) expressed in human 2008/MRP1 cells assessed as reversal of doxorubicin resistance after 5 days by MTS/PMS assay.
Data set [4] can be described thus: Inhibition of BCRP (unknown origin) expressed in MCF7/MX100 cells assessed as reversal of topotecan resistance after 5 days by MTS/PMS assay.
The nature of data set [5]: Inhibition of P-gp (unknown origin) expressed in human LCC6MDR cells assessed as reversal of mitoxantrone resistance after 5 days by MTS/PMS assay.
Data set [6] is described as follows: Inhibition of BCRP (unknown origin) expressed in human HEK293/R2 cells assessed as reversal of mitoxantrone resistance after 5 days by MTS/PMS assay.
Data set [7] can be described thus: Inhibition of MRP1 (unknown origin) expressed in human 2008/MRP1 cells assessed as reversal of mitoxantrone resistance after 5 days by MTS/PMS assay.

On to `C#CCCCCOc1ccc(-c2cc(=O)c3cc(F)ccc3o2)cc1`, for which the EC50 in data set [1] is 240 nM.

`C#CCCCCOc1ccc2c(=O)cc(-c3ccccc3)oc2c1`: the concentration for a half-maximal effect (EC50) in data set [1] was more than 1000 nM.

As for `C#CCCCCOc1ccc(-c2oc3ccccc3c(=O)c2OCc2cccc(OC)c2)cc1`, in data set [1], the EC50 came to 261 nM.

For `C#CCCCOc1ccc(-c2nc3ccccc3c(=O)[nH]2)cc1`, the concentration giving a half-maximal response (EC50) in data set [1] was more than 1000 nM.

`C#CCCCCOc1ccc(/C=C/C(=O)c2ccc(C)cc2O)cc1`: in data set [1], the 50% effective concentration (EC50) was more than 1000 nM.

`COc1cccc(COc2c(-c3ccc(OCCOCCN=[N+]=[N-])cc3)oc3ccccc3c2=O)c1`: the EC50 in data set [1] amounted to 76 nM.

On to `COC(=O)c1cccc(COc2c(-c3ccc(OCCOCCOCCn4cc(CCN5C(=O)c6ccccc6C5=O)nn4)cc3)oc3ccccc3c2=O)c1`, for which the EC50 in data set [2] was more than 1000 nM; in data set [1] it was 160 nM; in data set [3] it was more than 1000 nM.

On to `Cc1ccc2oc(-c3ccc(OCCOCCOCCN=[N+]=[N-])cc3)cc(=O)c2c1`, for which, in data set [1], the concentration giving a half-maximal response (EC50) was 750 nM.

Take `COC(=O)c1cccc(COc2c(-c3ccc(OCCOCCn4cc(CNc5ccccc5)nn4)cc3)oc3ccccc3c2=O)c1`: the EC50 is more than 1000 nM in data set [2], 26 nM in data set [1], more than 1000 nM in data set [3] and 44 nM in data set [4].

Turning to `C#CCN(Cc1ccccc1)Cc1ccccc1`, the EC50 in data set [1] was more than 1000 nM.

In the case of `[N-]=[N+]=NCCOCCOCCOc1ccc(-c2oc3ccccc3c(=O)c2OCc2ccccc2)cc1`, the EC50 in data set [1] worked out at 52 nM.

Consider `[N-]=[N+]=NCCOCCO`, for which, in data set [1], the 50% effective concentration (EC50) is more than 1000 nM.

For the compound `COC(=O)c1cccc(COc2c(-c3ccc(OCCOCCn4cc(CCN5C(=O)c6ccccc6C5=O)nn4)cc3)oc3ccccc3c2=O)c1`, the 50% effective concentration (EC50) in data set [2] was more than 1000 nM; in data set [1], 46 nM; in data set [3] it was more than 1000 nM; in data set [4] it was 97 nM.

As for `[N-]=[N+]=NCCOCCOc1ccc2c(=O)cc(-c3ccccc3)oc2c1`, the EC50 in data set [1] came out at 223 nM.

For the compound `[N-]=[N+]=NCCOCCOc1ccc(-c2cc(=O)c3ccccc3o2)cc1`, the concentration giving a half-maximal response (EC50) in data set [1] amounted to 365 nM.

For `COC(=O)c1cccc(COc2c(-c3ccc(OCCOCCOCCn4cc(CN(C)Cc5ccccc5)nn4)cc3)oc3ccccc3c2=O)c1`, the EC50 in data set [2] is 830 nM; in data set [1], 16 nM; in data set [3], more than 1000 nM; in data set [4], 28 nM.

As to `C#CCCCOc1ccc(-c2cc(=O)c3c(OCc4ccccc4)cc(OCOC)cc3o2)cc1`, the EC50 in data set [1] turned out to be 201 nM.

Regarding `C#CCN(C)Cc1ccccc1` [N-benzyl-N-methylprop-2-yn-1-amine], the EC50 in data set [1] was more than 1000 nM.

Consider `COC(=O)c1cccc(COc2c(-c3ccc(OCCCCc4cn(CCOCCO)nn4)cc3)oc3ccccc3c2=O)c1`, for which the concentration giving a half-maximal response (EC50) is 606 nM in data set [2], 10 nM in data set [1], more than 1000 nM in data set [3] and 27 nM in data set [4].

As to `C#CCCCOc1ccc(-c2cc(=O)c3ccccc3o2)cc1`, the EC50 in data set [1] is more than 1000 nM.

`[N-]=[N+]=NCCOCCOCCOc1ccc(-c2cc(=O)c3ccccc3o2)cc1`: the EC50 in data set [1] came out at 363 nM.

Take `O=c1cc(-c2ccccc2)oc2cc(OCCNCc3ccccc3)ccc12`: the concentration giving a half-maximal response (EC50) in data set [1] is more than 1000 nM.

On to `C#CCCN1C(=O)c2ccccc2C1=O`, for which the EC50 in data set [1] is more than 1000 nM.

On to `C#CCCCCOc1ccc(/C=C/C(=O)c2ccccc2O)cc1`, for which, in data set [1], the half-maximal effective concentration (EC50) is more than 1000 nM.

Take `C#CCCCCOc1ccc(/C=C/C(=O)c2cc(CC)ccc2O)cc1`: the concentration for a half-maximal effect (EC50) in data set [1] was more than 1000 nM.

On to `C#CCCCCOc1ccc(/C=C/C(=O)c2ccc(F)cc2O)cc1`, for which the EC50 in data set [1] is more than 1000 nM.

Consider `COC(=O)c1cccc(COc2c(-c3ccc(OCCOCCOCCN=[N+]=[N-])cc3)oc3ccccc3c2=O)c1`, for which the concentration giving a half-maximal response (EC50) in data set [2] is 298 nM; in data set [3] it was more than 1000 nM; in data set [4], 17 nM.

In the case of `[N-]=[N+]=NCCOCCOc1ccc(-c2oc3ccccc3c(=O)c2OCc2ccccc2)cc1`, the EC50 in data set [1] came out at 45 nM.

With `C#CCN(CCOc1ccc2c(=O)cc(-c3ccccc3)oc2c1)Cc1ccccc1`, the EC50 in data set [1] is more than 1000 nM.

`[N-]=[N+]=NCCOCCOc1ccc(-c2cc(=O)c3cc(F)ccc3o2)cc1`: in data set [1], the half-maximal effective concentration (EC50) stood at 840 nM.

In the case of `COC(=O)c1cccc(COc2c(-c3ccc(OCCOCCOCCn4cc(CN(CCO)Cc5ccccc5)nn4)cc3)oc3ccccc3c2=O)c1`, the half-maximal effective concentration (EC50) in data set [2] was 309 nM; in data set [1], 1.4 nM; in data set [5], 817 nM; in data set [6] it was 165 nM; in data set [3] it was more than 1000 nM; in data set [7], 592 nM. The EC50 in data set [4] was found to be 1.6 nM.

As to `COC(=O)c1cccc(COc2c(-c3ccc(OCCOCCn4cc(-c5cccc(-c6cn(CCOCCOc7ccc(-c8oc9ccccc9c(=O)c8OCc8cccc(C(=O)OC)c8)cc7)nn6)c5)nn4)cc3)oc3ccccc3c2=O)c1`, in data set [1], the EC50 amounted to 2.5 nM.

For the compound `C#CCCCOc1ccc(-c2cc(=O)c3ccc(F)cc3o2)cc1`, the 50% effective concentration (EC50) in data set [1] is 325 nM.

As to `C#CCCCOc1ccc(-c2cc(=O)c3cc(F)ccc3o2)cc1`, the EC50 in data set [1] came out at 417 nM.

`C#CCCCCOc1ccc(-c2oc3ccccc3c(=O)c2OCc2cccc(C(=O)OC)c2)cc1`: the EC50 was 821 nM in data set [2], 44 nM in data set [1], more than 1000 nM in data set [3] and 34 nM in data set [4].

On to `[N-]=[N+]=NCCOCCOc1cccc(-c2oc3ccccc3c(=O)c2OCc2ccccc2)c1`, for which the EC50 in data set [1] was found to be 169 nM.

Turning to `C#CCCCCOc1ccc(C=O)cc1`, in data set [1], the EC50 was more than 1000 nM.

As to `C#CCOCCOc1ccc2c(=O)cc(-c3ccccc3)oc2c1`, the EC50 in data set [1] is more than 1000 nM.

Regarding `[N-]=[N+]=NCCOCCOCCOc1ccc2c(=O)cc(-c3ccccc3)oc2c1`, the EC50 in data set [1] is 177 nM.

Consider `C#CCN(CC#C)CC#C`, for which the concentration for a half-maximal effect (EC50) in data set [1] is more than 1000 nM.

`COC(=O)c1cccc(COc2c(-c3ccc(OCCOCCN=[N+]=[N-])cc3)oc3ccccc3c2=O)c1`: the results for the EC50 in data set [2], in data set [3] and in data set [4] were more than 1000 nM, more than 1000 nM and 50 nM, respectively.

For the compound `C#CCCCOc1ccc(-c2cc(=O)c3cc(C)ccc3o2)cc1`, the EC50 in data set [1] was more than 1000 nM.

Regarding `COC(=O)c1cccc(COc2c(-c3ccc(OCCCCc4cn(Cc5ccccc5)nn4)cc3)oc3ccccc3c2=O)c1`, the concentration giving a half-maximal response (EC50) in data set [2] was 670 nM; in data set [1], 7 nM; in data set [5] it was 673 nM; in data set [6] it was 13 nM; in data set [3], more than 1000 nM; in data set [7] it was 886 nM. The concentration for a half-maximal effect (EC50) in data set [4] was determined as 6 nM.

With `[N-]=[N+]=NCCOc1ccc2c(=O)cc(-c3ccccc3)oc2c1`, the half-maximal effective concentration (EC50) in data set [1] amounted to 213 nM.

With `C#CCCCOc1ccc2c(=O)cc(-c3ccccc3)oc2c1`, in data set [1], the EC50 was more than 1000 nM.

As for `COC(=O)c1cccc(COc2c(-c3ccc(OCCOCCOCCn4cc(CCCCOc5ccc(C=O)cc5)nn4)cc3)oc3ccccc3c2=O)c1`, the EC50 is more than 1000 nM in data set [2], 19 nM in data set [1], 865 nM in data set [3] and 38 nM in data set [4].

Regarding `C#CCNc1ccccc1`, the EC50 in data set [1] was more than 1000 nM.

As for `C#CCCCCOc1ccc(/C=C/C(=O)c2cc(C)ccc2O)cc1`, the half-maximal effective concentration (EC50) in data set [1] is more than 1000 nM.

`COC(=O)c1cccc(COc2c(-c3ccc(OCCOCCn4cc(CN(C)Cc5ccccc5)nn4)cc3)oc3ccccc3c2=O)c1`: the EC50 was more than 1000 nM in data set [2]; 15 nM in data set [1]; 644 nM in data set [5]; 17 nM in data set [6]; more than 1000 nM in data set [3]; 681 nM in data set [7]. For the same compound, in data set [4], the EC50 is 3.5 nM.

For `COC(=O)c1cccc(COc2c(-c3ccc(OCCOCCn4cc(CN(Cc5ccccc5)Cc5ccccc5)nn4)cc3)oc3ccccc3c2=O)c1`, the EC50 in data set [2] is more than 1000 nM; in data set [1], 32 nM; in data set [3] it was more than 1000 nM; in data set [4] it was 30 nM.
